In ChEMBL document CHEMBL3797164, “Transfer of SAR information from hypotensive indazole to indole derivatives acting at α-adrenergic receptors: In vitro and in vivo studies” (Eur J Med Chem, 2016):

What was measured:
Rattus norvegicus [1] = test: Antihypertensive activity in anesthetized Wistar rat assessed as change in mean arterial blood pressure at 0.1 mg/kg, iv administered as bolus dose after 2 mins; assay type: functional
Rattus norvegicus [2] = test: Antihypertensive activity in anesthetized Wistar rat assessed as change in heart rate at 0.1 mg/kg, iv administered as bolus dose after 2 mins (reference value: -0.6 […]); assay type: functional
[3] = Displacement of [3H]2BFI from Imidazoline receptor 2 in Sprague-Dawley rat brain P2 membrans after […] by liquid scintillation counting
Rattus norvegicus [4] = test: Antihypertensive activity in anesthetized Wistar rat assessed as change in heart rate at 0.1 mg/kg, iv administered as bolus dose after 30 mins (reference value: -8.6 […]); assay type: functional
Rattus norvegicus [5] = test: Antihypertensive activity in anesthetized Wistar rat assessed as change in mean arterial blood pressure at 0.1 mg/kg, iv administered as bolus dose after 15 mins (reference value: -0.8 mmHg); assay type: functional
[6] = molecular target: T1, Adrenergic receptor alpha-2 (Rattus norvegicus, UniProt P22086+P19328+P22909); test: Displacement of [3H]RX821002 from Alpha-2 adrenergic receptor in Sprague-Dawley rat brain P2 membranes after […] by liquid scintillation counting
T1 sequence (P22086 whole entry): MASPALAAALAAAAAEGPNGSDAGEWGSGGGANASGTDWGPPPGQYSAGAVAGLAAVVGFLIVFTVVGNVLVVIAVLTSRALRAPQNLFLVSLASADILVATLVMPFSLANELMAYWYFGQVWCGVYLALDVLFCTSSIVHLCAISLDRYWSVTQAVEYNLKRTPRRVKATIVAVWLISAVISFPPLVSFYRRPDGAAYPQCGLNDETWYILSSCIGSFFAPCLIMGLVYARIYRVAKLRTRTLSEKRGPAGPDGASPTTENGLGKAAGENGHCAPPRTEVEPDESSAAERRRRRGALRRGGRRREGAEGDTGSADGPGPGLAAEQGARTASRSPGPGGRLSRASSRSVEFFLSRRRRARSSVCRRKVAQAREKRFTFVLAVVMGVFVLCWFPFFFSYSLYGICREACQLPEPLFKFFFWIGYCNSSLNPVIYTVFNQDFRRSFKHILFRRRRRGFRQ
T1 sequence (P19328 whole entry): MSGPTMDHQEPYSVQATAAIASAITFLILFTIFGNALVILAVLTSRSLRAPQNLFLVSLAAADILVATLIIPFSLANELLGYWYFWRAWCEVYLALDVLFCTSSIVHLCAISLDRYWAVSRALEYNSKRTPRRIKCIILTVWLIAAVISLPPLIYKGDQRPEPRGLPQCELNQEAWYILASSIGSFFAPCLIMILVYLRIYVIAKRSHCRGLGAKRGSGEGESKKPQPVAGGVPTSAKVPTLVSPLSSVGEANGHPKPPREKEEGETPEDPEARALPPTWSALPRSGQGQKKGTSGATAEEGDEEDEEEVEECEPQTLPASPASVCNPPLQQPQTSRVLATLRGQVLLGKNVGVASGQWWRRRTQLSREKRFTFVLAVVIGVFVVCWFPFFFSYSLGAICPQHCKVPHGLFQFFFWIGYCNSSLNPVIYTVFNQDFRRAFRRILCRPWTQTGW
T1 sequence (P22909 whole entry): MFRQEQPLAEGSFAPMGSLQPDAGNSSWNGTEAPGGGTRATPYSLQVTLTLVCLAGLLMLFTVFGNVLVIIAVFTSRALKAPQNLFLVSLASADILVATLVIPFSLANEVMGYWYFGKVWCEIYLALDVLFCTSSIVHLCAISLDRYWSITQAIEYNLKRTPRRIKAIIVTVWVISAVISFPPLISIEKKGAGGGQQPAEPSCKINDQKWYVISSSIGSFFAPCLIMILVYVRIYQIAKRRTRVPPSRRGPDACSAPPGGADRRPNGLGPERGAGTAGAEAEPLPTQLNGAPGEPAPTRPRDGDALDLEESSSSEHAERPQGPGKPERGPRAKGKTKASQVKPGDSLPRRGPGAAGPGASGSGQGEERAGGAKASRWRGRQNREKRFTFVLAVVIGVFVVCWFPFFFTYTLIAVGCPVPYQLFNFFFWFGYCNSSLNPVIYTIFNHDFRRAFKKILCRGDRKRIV

Rattus norvegicus [7] = test: Antihypertensive activity in anesthetized Wistar rat assessed as change in heart rate at 0.1 mg/kg, iv administered as bolus dose after 5 mins (reference value: -2.9 […]); assay type: functional
Rattus norvegicus [8] = test: Antihypertensive activity in anesthetized Wistar rat assessed as change in heart rate at 0.1 mg/kg, iv administered as bolus dose after 15 mins (reference value: -6.0 […]); assay type: functional
Rattus norvegicus [9] = test: Antihypertensive activity in anesthetized Wistar rat assessed as change in heart rate at 0.1 mg/kg, iv administered as bolus dose after 60 mins (reference value: -6.2 […]); assay type: functional

Compound	Activity (Rattus norvegicus [1]) [mmHg]	Activity (Rattus norvegicus [2]) [bpm]	Ki [3] [nM]	Activity (Rattus norvegicus [4]) [bpm]	Activity (Rattus norvegicus [5]) [mmHg]	Ki [6] [nM]	Activity (Rattus norvegicus [7]) [bpm]	Activity (Rattus norvegicus [8]) [bpm]	Activity (Rattus norvegicus [9]) [bpm]
Cl.c1ccc2c(c1)ccn2CC1=NCCN1	34.1	-138.4	197	-105.3	6.9	33.5	-100.1	-115.2	-75.1
Br.Cc1cccc2ccn(CC3=NCCN3)c12	13.4	-61.3	1160	-111.7	-39.2	16.63	-83.3	-107.5	-87.7
Cl.Clc1cccc2ccn(CC3=NCCN3)c12	15.2	-89.6	71.1	-125.4	-36	6.34	-132	-130.7	-129.4
